Reference: patent US5506207A, “GNRH antagonists XIII” (The Salk Institute for Biological Studies, priority 1994, dated 1996)
Entries after “also recorded” stand apart in the source; their conditions may differ. Square brackets hold non-standard residues; d marks the D form. Peptide text beside a SMILES is read from it. * marks the point of attachment. dPhe(4-NH2) = Nc1ccc(C[C@@H](N)C(=O)O)cc1; dPhe(4-Cl) = N[C@H](Cc1ccc(Cl)cc1)C(=O)O; Phe(4-NH2) = Nc1ccc(C[C@H](N)C(=O)O)cc1; d2Nal = N[C@H](Cc1ccc2ccccc2c1)C(=O)O; Lys(iPr) = CC(C)NCCCC[C@H](N)C(=O)O; d3Pal = N[C@H](Cc1cccnc1)C(=O)O; X1 = Nc1n[nH]c(NCC(=O)*)n1

Key:
[1] = solubility in aqueous buffers; assay type: physicochemical; details: pH from about 5 to about 7
[2] = tested on: mature female Sprague-Dawley rats; assay: examination of treated rats for tolerance and gelling at the point of injection; assay type: in vivo, rat; details: rats injected with peptide in bacteriostatic water

## CC(=O)N[C@H](Cc1ccc2ccccc2c1)C(=O)N[C@H](Cc1ccc(Cl)cc1)C(=O)N[C@H](Cc1cccnc1)C(=O)N[C@@H](CO)C(=O)N[C@@H](Cc1ccc(NC(=O)CNc2nc(N)n[nH]2)cc1)C(=O)N[C@H](Cc1ccc(NC(=O)CNc2nc(N)n[nH]2)cc1)C(=O)N[C@@H](CC(C)C)C(=O)N[C@@H](CCCCNC(C)C)C(=O)N1CCC[C@H]1C(=O)N[C@H](C)C(N)=O [Peptide No. 1, [Ac-β-D-2NAL^1, (4Cl)D-Phe^2, D-3PAL^3, Aph(Gly)(atz)^5, D-Aph(Gly)(atz)^6, ILys^8, D-Ala^10]-GnRH] (Ac-[d2Nal][dPhe(4-Cl)][d3Pal]S[Phe(4-NH2)](X1)[dPhe(4-NH2)](X1)L[Lys(iPr)]P[dA]-NH2)
[1]
  solubility in aqueous buffers: solubility in aqueous buffers at a pH of from about 5 to about 7
[2]
  tolerance and gelling at the point of injection: very well tolerated with no significant gelling at the point of injection being detectable; also recorded: resistance to in vivo gelling
